Data from the NIST ThermoML archive (doi:10.1021/acs.jced.9b00021).
Where “and” joins values, the source holds several entries; their conditions need not be identical. Equal values may be shown once.

Details: 400 kPa, Liquid, Concentric cylinders viscometry

CN(CCO)CCO [N-methyldiethanolamine]
Details | viscosity
298.15 K | 73.1 mPa·s
303.15 K | 55.89 mPa·s
308.15 K | 43.45 mPa·s
313.15 K | 34.15 mPa·s
318.15 K | 27.15 mPa·s
323.15 K | 21.82 mPa·s
328.15 K | 17.79 mPa·s
333.15 K | 14.63 mPa·s
338.15 K | 12.2 mPa·s
343.15 K | 10.21 mPa·s
348.15 K | 8.61 mPa·s and 8.6 mPa·s
353.15 K | 7.31 mPa·s
358.15 K | 6.28 mPa·s and 6.29 mPa·s
363.15 K | 5.43 mPa·s
368.15 K | 4.72 mPa·s
373.15 K | 4.12 mPa·s
